Measurements as given in PubChem BioAssay AID488890 (Southern Research Specialized Biocontainment Screening …, 2010).
Results filed as inconclusive are left out. Active and inactive are the calls of the source. The rule behind the calls is not given here.

tested on: Mycobacterium tuberculosis non-replicating, growth inhibition; experiment: growth inhibition of non-replicating M. tuberculosis (AID 488890)

Row | Structure (SMILES) | IC50
1 | CC(NC(=O)c1cccc(F)c1)C1CC2CCC1C2 (stereo not drawn) | 0.16 µM
2 | Cc1ccc2c(c1)c(C1=c3ccccc3=NC1=O)c(O)n2C | 4.42 µM
3 | N=c1oc2ccccc2cc1C(=O)NC1CCCCCC1 | 7.31 µM
4 | O=C(O)c1ccccc1-c1ccccc1C(=O)Nc1nc2ccccc2s1 | 6.29 µM
5 | Cc1ccc(NC(=O)c2ccc([N+](=O)[O-])o2)cc1S(=O)(=O)N1CCOCC1 | 13.9 µM (inactive)
6 | CCOc1ccccc1NC(=O)COn1nnc2ccc(Cl)cc21 | 10.5 µM (inactive)
7 | O=C(Oc1cccc2cccnc12)c1cccc([N+](=O)[O-])c1 | 3 µM
8 | Cc1cc(N/N=C/c2ccccc2O)c2ccccc2n1 | 10.1 µM (inactive)
9 | CCn1c(O)c(C(=O)CC2NCCc3ccccc32)c(=O)n(CC)c1=S (stereo not drawn) | 21.8 µM (inactive)
10 | CC(C)=CCN1CCN(Cc2cn(C(C)C)c3ccccc23)CC1CCO (stereo not drawn) | 22.1 µM (inactive)
11 | CC(=O)Nc1nc2ccccc2n1Cc1ccccc1Cl | 14.1 µM (inactive)
12 | Cc1cc(O)c(-c2cc(O)c(C)cc2O)cc1O | 2.52 µM
13 | CN(CC(=O)Nc1ccc(Cl)cc1)C1CCCCC1 | < 0.1 µM
14 | Cc1ccc(NC(=O)C2=C(c3ccccc3)S(=O)(=O)CCS2(=O)=O)cc1 | 2.05 µM
15 | CC(Cc1cccs1)NC(=O)c1cccc(Cl)c1 (stereo not drawn) | 8.14 µM
16 | C=CCn1c(C)cc(C2=NNC(=NCc3ccccc3)SC2)c1C | 7.71 µM
17 | O=C(CCN1CCC(c2ccccc2)C1)c1ccccc1 (stereo not drawn) | 33.1 µM (inactive)
18 | CC(C)(C)CC(=O)NC(=S)NCc1ccco1 | 4.56 µM
19 | CCOC(=O)COc1ccc2c3c(c(=O)oc2c1C)CCC3 | 14 µM (inactive)
20 | O=C(NCc1nnc(SC/C=C/c2ccccc2)o1)c1ccco1 | 4.25 µM

Row | Structure (SMILES) | IC50
21 | COC(=O)c1ccc(COC(=O)CCS(=O)(=O)c2ccc(C)cc2)cc1 | 19 µM (inactive)
22 | O=C(COC(=O)c1ccccc1)NC12CC3CC(CC(C3)C1)C2 | 24 µM (inactive)
23 | CC(C)Cn1c([N+](=O)[O-])nc2c1c(=O)[nH]c(=O)n2C | 5.81 µM
24 | Cc1ccc(NC(=O)CO/N=C/c2ccccc2C)c(C)c1 | 13 µM (inactive)
25 | O=C(NC(=S)NCCc1ccccc1)c1ccccc1 | 10.4 µM (inactive)
26 | C=CCn1c(NC(=O)c2ccccc2)nc2ccccc21 | 21.6 µM (inactive)
27 | c1ccc2sc(SCc3ccc(-c4nnco4)cc3)nc2c1 | 13.2 µM (inactive)
28 | C/C(=N\NC(=O)c1cccs1)c1ccc2c(c1)OCO2 | 8.78 µM
29 | CCOC(=O)c1c(C)nc2c3ccccc3ccn12 | 13.3 µM (inactive)
30 | Cc1nn(-c2nc3ccccc3[nH]2)c(N)c1-c1ccc(Cl)cc1 | 4.88 µM
31 | O=[N+]([O-])c1ccc(CSc2nnc(-c3cccnc3)o2)cc1 | 0.81 µM
32 | CCOC(=O)Nc1ccc2c(c1)N(C(=O)CCN1CCOCC1)c1ccccc1S2=O (stereo not drawn) | 3.62 µM
33 | CC(C)c1ccc(/C=N/NC(=O)c2ccccn2)cc1 | 12.9 µM (inactive)
34 | CC(NCC(O)COCCC12CC3CC(CC(C3)C1)C2)c1ccccc1 (stereo not drawn) | 7.88 µM
35 | CCC1CCc2sc(C(=O)NCC3CCCO3)cc2C1 (stereo not drawn) | 1.44 µM
36 | Cc1oc(=O)c(NC(=O)c2ccccc2)cc1C(=O)c1ccccc1 | 5.33 µM
37 | CCCCn1c(=O)c(C(=O)Nc2ncccc2C)c(O)c2ccccc21 | 3.81 µM
38 | Cc1ccc(C(=O)n2c(N)nc3ccccc32)cc1 | 16.6 µM (inactive)
39 | CC(/C=C\C=C\c1ccccc1)=N\NC(=O)c1cncc(Br)c1 | 31.2 µM (inactive)
40 | CC(C)(C)Sc1ccc2nc3c(n2c1)CCCC3 | 9.32 µM

Row | Structure (SMILES) | IC50
41 | CCc1ccc(OCC(=O)c2c(O)c3ccccc3oc2=O)cc1 | 9.35 µM
42 | CCCCCCOc1ccc(C(=O)O)cc1C#N | 42.7 µM (inactive)
43 | CC(C)(C)c1ccc(C(=O)Nc2nnc(C3=COCCO3)o2)cc1 | 3.07 µM
44 | O=C(Oc1ccc(F)cc1)c1ccc2c(=O)n3c(nc2c1)CCC3 | 2.49 µM
45 | CCCn1nnnc1NC(=O)COc1ccc(Br)cc1 | 4.62 µM
46 | CCCCCC/C(=N/O)c1ccccn1 | 11.6 µM (inactive)
47 | Cc1cccc(/C=C/c2onc(C)c2[N+](=O)[O-])n1 | 15 µM (inactive)
48 | CN1CCN(c2ccc(NC(=O)c3ccc(-c4ccc(Br)cc4)o3)cc2)CC1 | 4.06 µM
49 | O=C(OCC(=O)N1CCN(c2ccccc2)CC1)c1ccc(Cl)cc1[N+](=O)[O-] | 14.4 µM (inactive)
50 | O=C(NC1CCCCC1)c1nc2c(nnn2Cc2ccccc2Cl)c(=O)[nH]1 | 3.72 µM
51 | Cc1c(-c2ccc(Br)cc2)nc2ccccn12 | 18.9 µM (inactive)
52 | CCOC(=O)N1CCC(NS(=O)(=O)c2cc3c(cc2Cl)NC(=O)CO3)CC1 | 4.67 µM
53 | COc1ccc(C(=O)CCS(=O)(=O)c2ccc(C)cc2)cc1OC | 4.05 µM
54 | O=C(Nc1nc(-c2cccs2)cs1)c1ccc([N+](=O)[O-])o1 | 2.08 µM
55 | CCN(CC)c1ccc(-c2sc(Nc3ccccc3)n[n+]2-c2ccc(F)cc2)cc1 | 9.04 µM
56 | CC(C)Cn1c(N)c(C(=O)COC(=O)c2ccc([N+](=O)[O-])o2)c(=O)n(C)c1=O | 2.86 µM
57 | CC/C(=C\C=C\[C@@H]1C=C[C@@H]2CCC[C@H]2[C@@H]1C(=O)c1ccc[nH]1)[C@@H]1O[C@@H]([C@@H](C)C(=O)O)CC[C@@H]1C | 3.28 µM
58 | Cc1cc(C)c2nc(/N=C(\N)NC(=O)Nc3ccccc3)nc(C)c2c1 | 13.3 µM (inactive)
